Here are results for seven molecules from patent US20130333059A1, “HOX COMPOSITIONS AND METHODS” (THE JOHNS HOPKINS UNIVERSITY, priority 2006, published 2013).

Entries after “also recorded” stand apart in the source; their conditions may differ.

One assay deals with MDCK-B7 cells. Briefly: Matrigel invasion assay, pooled MDCK-B7 cells. It is filed as cell-based, canine. The note with it: Su5402 40 μmol/L; for invasive phenotype / invasive ability of MDCK-B7 cells: 36 hours, Bay43-9006 4 μmol/L, U0126 10 μmol/L, either inhibitor alone or in combination. The method, then: (§1) Matrigel invasion assay. Into the Biocoat Matrigel invasion chambers (BD Biosciences) were seeded 4×10^4 cells in 2% FBS medium, and in the lower wells 10% FBS was added as the chemoattractant. After 36 hours of incubation, the filters were stained with crystal violet, and the number of cells that had penetrated through the filter was counted under ×20 magnification (10 randomly selected high-power fields). For inhibition of invasion assays, the FGF receptor inhibitor Su5402 (40 μmol/L), the MAPK/extracellular signal-regulated kinase kinase (MEK) inhibitor U0126 (10 μmol/L), and the Raf inhibitor Bay43-9006 (4 μmol/L; Calbiochem, San Diego, Calif.) were added to the medium in the top chamber at the final concentrations indicated. Ras and RhoA activation assay. Cell lysates were incubated with glutathione S-transferase (GST)-Raf-1 Ras binding domain or GST-Rhotekin RhoA binding domain agarose beads (Upstate, Charlottesville, Va.). GTP-bound Ras or RhoA that precipitated with the beads were detected by SDS-PAGE and immunoblotting with anti-Ras antibody (Santa Cruz Biotechnology) or anti-RhoA antibody (Upstate).

In a further assay the test system is BT474 cells. The assay can be described thus: Soft agar colony formation, BT474 cells. It is filed as cell-based, human. The conditions noted are these: 1 μM gefitinib and 1 μM tamoxifen.
In assay [1] the test system is MCF-7-B7 cells. The assay can be described thus: Soft agar colony formation, MCF-7-B7 cells. It is filed as cell-based, human.
Assay [2] deals with EGFR/HER2 and ERα signaling. The assay can be described thus: Immunoblot of EGFR/HER2, MAPK, ERα signaling in MCF-7-B7 cells. Format: cell-based, human. Background: In western blotting, separated proteins are transferred to a membrane and probed.
The subject of the next assay is LTED cells. The conditions noted are these: Martin La., 2005; cited from earlier work.
Assay [3] has as its system Her2/Hoxb7 transgenic mouse mammary tumor cells. Briefly: Sensitivity to anti-ER drugs, Her2/Hoxb7 transgenic mouse mammary tumor cells. Format: cell-based.
Assay [4] has as its system EGFR, HER2, ERα and HOXB7. The assay can be described thus: Immunoblot of EGFR, HER2, ERα, HOXB7 in long-term tamoxifen treated MCF-7 (MCF-7-TMR) cells. Format: cell-based, human.
Assay [5] relates to MCF-7-B7 cells. Briefly: Xenograft of MCF-7-B7 cells in athymic mice. Format: in vivo. The note with it: absence of exogenous estrogen supplement. The method, then: 3×10^6 cells of MCF-7-vec or MCF-7-B7 were suspended in 100 μl PBS/Matrigel (1:1) and injected s.c into the female 3- to 4-week-old BALB/c nu/nu athymic mice (Harlan, Sprague Dawley, Madison, Wis.), which simultaneously received a 60-day slow release pellet containing 0.72 mg of 17β-estradiol and/or 5 mg tamoxifen (Innovative Research of America, Southfield, Mich.). Fulvestrant was dissolved in 100% ethanol and diluted in sesame oil; 5 mg was injected s.c. twice a week^20. Animals were observed once a week. At necropsy, primary tumors, liver, lung and spleen were evaluated for the presence of macroscopic tumors. Tissue samples of the primary tumor and organs were fixed in 4% paraformaldehyde and stained with H&E to assess histomorphology.

The test system of assay [6] is Her2 positive transgenic mammary tumor cells. The assay can be described thus: Sensitivity to anti-ER drugs, Her2 positive transgenic mammary tumor cells. It is filed as cell-based, mouse. The note with it: cells do not express ER.
For the next assay, the system named is MCF-7-TMR cells. Briefly: Colony formation and ERE-Luc activity, MCF-7-TMR cells. Format: cell-based, human.
For assay [7] the following is noted: in the clinic; cited from earlier work.
The next assay concerns ERE-luc reporter. The assay can be described thus: ERE-tk-Luc reporter assay, MCF-7-B7 cells. Format: cell-based, human. The note with it: 100 nM tamoxifen, 10 nM E2, 24 h. The method, then:
Transient transfection was performed with the respective promoter-luciferase constructs. Results were normalized to the level of B-galactosidase activity in the samples. The EGFR promoter reporter plasmids were a kind gift of Dr. Alfred C. Johnson (Bethesda, Md.). ERE-tk-LUC was a generous gift from Dr. Elaine Alarid (Madison, Wis.).
(In general: Reporter assays use an easily measured gene product as a stand-in for the process of interest.)

The next assay has as its system HOXB7, EGFR and HER2. The assay can be described thus: HOXB7, EGFR, HER2 expression in T47D cells upon tamoxifen. It is filed as cell-based, human.
Another assay relates to HOXB7 promoter region. Briefly: CHIP analysis of T47D cells, HOXB7 promoter region. It is filed as cell-based, human. The conditions noted are these: 1 μM tamoxifen, 45 min.
The test system of assay [8] is EGFR/HER2 and ERα signaling. Briefly: Immunoblot of EGFR/HER2, MAPK, ERα signaling in MCF-7-vec cells. It is filed as cell-based, human. The note with it: 1 μM tamoxifen, estrogen deprived medium, 48 hours.
The next assay relates to Ras. Briefly: Ras activation assay, MDCK-B7 cells. Format: cell-based, canine. As to the method:
as §1

The next assay deals with TGFα and HB-EGF. Briefly: Immunoblot of TGFα and HB-EGF in MCF-10A-B7 cells. It is filed as cell-based, human. The conditions noted are these: 0.1 μM AG1478, 24 hours.
Where [9] appears, read: MCF-7 cells, 0.1 μM tamoxifen over time (0, 2, 4, 6 months).
The mark [10] stands for this setting: MCF-7 cells, 1 μM or 0.1 μM tamoxifen for at least 6 months.

Regarding `N#CC(=C(/N)Sc1ccccc1N)/C(C#N)=C(\N)Sc1ccccc1N` [U0126], the “invasive phenotype / invasive ability of MDCK-B7 cells” value (“invasive phenotype / invasive ability” for short) in the assay on MDCK-B7 cells was “complete suppression; also recorded: block”.
Consider `COc1cc2ncnc(Nc3ccc(F)c(Cl)c3)c2cc1OCCCN1CCOCC1` [gefitinib], for which the “effect on tamoxifen action in BT474 cells” value in the assay on BT474 cells is “dramatically converted tamoxifen from a partial agonist to a potent antagonist”. For the same molecule, the “sensitivity of the cells to tamoxifen treatment” value in the assay on MCF-7-B7 cells [1] (1 μM tamoxifen in combination with 1 μM gefitinib) is reported as “significantly re-sensitized”.
Take `C[C@]12CC[C@@H]3c4ccc(O)cc4C[C@@H](CCCCCCCCC[S+]([O-])CCCC(F)(F)C(F)(F)F)[C@H]3[C@@H]1CC[C@@H]2O` (stereo partly shown) [fulvestrant]: the “levels of the autocrine/paracrine EGFR ligands (Amphiregulin and TGFα)” value in [2] (1 μM fulvestrant, 24 h) was “significant reduction”. Moreover, the “HOXB7 overexpression-related increases in EGFR and p44/42 MAPK activity” value in [2] (fulvestrant treatment) is reported as “reduced”. Besides, the “sensitivity to fulvestrant treatment in vitro” value in the assay with MCF-7-B7 cells [1] (MCF-7-B7, 1 μM Fulvestrant) was “remained sensitive”; with MCF-7-TMR cells (MCF-7-TMR, 1 μM Fulvestrant), “remained sensitive”. For the same molecule, in the assay on MCF-7-B7 cells [1] (in a dose-dependent manner), the “HOXB7-promoted colony formation in vitro” value was “reduced”. For the same molecule, in the assay on LTED cells, the “sensitivity of LTED cells” value is recorded as “sensitive”. Also, the response to treatment entry was “strongly respond” in assay [3] and “did not respond” in assay [6]. In addition, the “expression of EGFR and HER2” value in assay [4] (MCF-7-TMR cells, 1 μM fulvestrant, 24 h) is “significantly reduced”. Also, the HOXB7 levels entry in assay [4] (MCF-7-TMR cells, 1 μM fulvestrant, 24 h, vs vehicle) was “lower”. For the same molecule, in the assay with MCF-7-B7 cells [5] (fulvestrant 10 mg/week), the “tumor formation in vivo” value is given as “reduced”. For the same molecule, the “tamoxifen-relapsed / tamoxifen-resistant patients who respond” value in assay [7] was “nearly two-thirds”.
`CC/C(=C(\c1ccccc1)c1ccc(OCCN(C)C)cc1)c1ccccc1` [tamoxifen]: in assay [2] (1 μM tamoxifen, 48 hours), the “effect on the expression of Cyclin D1 and Bcl-2” value is “potent estrogen-like agonistic effect”; the “p44/42 MAPK activity and phosphorylation of ERα at serine 118” value was “increased”. Also, the “active forms of EGFR and HER2” value in [2] (1 μM tamoxifen, estrogen deprived medium, 48 hours) is reported as “significantly higher level”. Further, the “activation of p44 MAPK and ER phosphorylation at Ser 118 site” value in assay [2] (1 μM tamoxifen, short period, MCF-7-B7) is recorded as “potently stimulates”. Moreover, in assay [2] (1 μM tamoxifen, short period, estrogen deprived), the “levels of active forms of EGFR and HER2” value was “elevated levels”. In addition, the “attenuation of estrogen-stimulated ERE-luc reporter activity” value in the assay with ERE-luc reporter is on record as “inability”. Besides, the “expression of HOXB7” value in the assay with HOXB7, EGFR and HER2 (1 μM tamoxifen, short-term) was “increased expression”. In addition, the “expression levels of EGFR and HER2” value with HOXB7, EGFR and HER2 (tamoxifen) is listed as “induced”. Besides, in the assay with HOXB7 promoter region, the “binding of ERα to HOXB7 promoter region” value is on record as “promoted binding”. The “growth (colonies in soft agar)” value in the assay with MCF-7-B7 cells [1] (estrogen-deprived conditions, tamoxifen 1 μM) is listed as “enhanced”. For the same molecule, the “sensitivity to the inhibitory effects of tamoxifen in culture” value in the assay with MCF-7-B7 cells [1] (tamoxifen 1 μM, complete medium) is recorded as “loss of sensitivity”. The “sensitivity of LTED cells” value in the assay on LTED cells was “refractory”. The response to treatment result in assay [3] was “not responding”. Further, in [4] (setting [9]), the “expression of EGFR/HER2 and ERα” value was “concomitant increases”; the “levels of expression of HOXB7” value is on record as “progressively increasing levels”. In addition, in assay [4] (setting [10]), the HOXB7 expression level entry was “potently elevated”; the “expression of EGFR, HER2 and ERα” value is “elevated expression”. In [8], the “increase of active form of HER2” value is recorded as “about 1.5 fold” and the “levels of the active form of EGFR” value is on record as “reduction”. Further, the “effect on established tumors of MCF-7-B7 cells in nude mice” value in the assay on MCF-7-B7 cells [5] (tamoxifen 83.3 μg/day) is “no inhibitory effect”. In addition, the response to treatment result in assay [6] was “did not respond”. Moreover, the “resistance to tamoxifen treatment (colony formation and ERE-Luc activity)” value in the assay with MCF-7-TMR cells (100 nM tamoxifen) is given as “significant resistance”.
For the molecule `Cc1c[nH]c(/C=C2\C(=O)Nc3ccccc32)c1CCC(=O)O` [Su5402], in the assay on MDCK-B7 cells, the “invasive phenotype / invasive ability” value was “reduce” and the “inhibition of invasion ability of MDCK-B7 cell” value is recorded as about 80%. Further, the “active form Ras (Ras-GTP form)” value in the assay with Ras is “attenuate”.
Regarding `COc1cc2ncnc(Nc3cccc(Cl)c3)c2cc1OC` [AG1478], the “elevated expression of TGFα and HB-EGF” value in the assay on TGFα and HB-EGF is “significantly abrogated”.
As to `CNC(=O)c1cc(Oc2ccc(NC(=O)Nc3ccc(Cl)c(C(F)(F)F)c3)cc2)ccn1` [Bay43-9006], the “invasive phenotype / invasive ability” value in the assay with MDCK-B7 cells was “complete suppression”; with MDCK-B7 cells (listed as BAY 43-9006), “block”.
